Data from patent US5637617A, “Methods for use of GABAa receptor GABAergic compounds” (The Regents of the University of California, priority 1994, dated 1997).

Tested on: phosphoinositide/Ca2+ pathway
Assay: Direct membrane current responses of oocytes to fenamates
Type: cell-based, Xenopus laevis
Details: 10-100 μM; in some oocytes

With Cc1cccc(Nc2ccccc2C(=O)O)c1C [Mefenamic acid] the “direct membrane current responses” value was “able to elicit membrane current responses”.
Cc1ccc(Cl)c(Nc2ccccc2C(=O)O)c1Cl [Meclofenamate, Meclofenamic acid] was tested, and the “direct membrane current responses” value was “able to elicit membrane current responses”.
